pKd: −log10 of the molar value. Where two headings read alike, the source gives them in different places.
Key:
[1] = Brain and plasma concentrations in mice after oral dose; assay type: in vivo; conditions: female, CD-1, mouse, single oral dose of 50 mg kg^−1, 2 h
Procedure: These values for concentrations of free compound in the brain give a Kp,uu value of 0.6 (defined as the ratio of unbound compound in brain to unbound compound in plasma). This ratio provides an estimate of the amount of free drug in the brain interstitial fluid as being just over half the free concentration in the blood.
Blood samples were collected from terminal cardiac puncture at 0.08 (IV only), 0.25, 0.5, 1 (PO only), 2, 4, 8 and 24 hour time points. The whole blood was centrifuged to obtain plasma. Brains were also collected following cardiac perfusion from both sets of animals at 2 hours. Analysis of the biological samples was carried out by the company Selcia. Plasma proteins were precipitated by addition of PBS (1 volume) followed by 3 volumes of acetonitrile containing internal standard (verapamil). Following filtration through a protein precipitation plate the eluent was dried under nitrogen and re-suspended in mobile phase prior to analysis. Individual brains were homogenised in PBS and diluted to 10% w/v and divided into aliquots consisting of brain homogenate (1 volume, 0.3 ml) and 3 volumes (0.9 ml) of acetonitrile containing internal standard. Samples were centrifuged and supernatants removed and taken through a protein precipitation plate alongside an appropriate standard. […] Eluents were analysed by LC-MS/MS using a Phenomenex Gemini NX column (C18,30 x 2.1 mm, 3 micron). […]

TbPFK = biological target: T1, TbPFK (Trypanosoma brucei brucei, UniProt O15648); assay: Surface plasmon resonance (SPR); assay type: binding
T1 construct: made in house; host or cells: Escherichia coli C41 (pET28a, codon optimised gene)
T1 sequence (O15648 1-487): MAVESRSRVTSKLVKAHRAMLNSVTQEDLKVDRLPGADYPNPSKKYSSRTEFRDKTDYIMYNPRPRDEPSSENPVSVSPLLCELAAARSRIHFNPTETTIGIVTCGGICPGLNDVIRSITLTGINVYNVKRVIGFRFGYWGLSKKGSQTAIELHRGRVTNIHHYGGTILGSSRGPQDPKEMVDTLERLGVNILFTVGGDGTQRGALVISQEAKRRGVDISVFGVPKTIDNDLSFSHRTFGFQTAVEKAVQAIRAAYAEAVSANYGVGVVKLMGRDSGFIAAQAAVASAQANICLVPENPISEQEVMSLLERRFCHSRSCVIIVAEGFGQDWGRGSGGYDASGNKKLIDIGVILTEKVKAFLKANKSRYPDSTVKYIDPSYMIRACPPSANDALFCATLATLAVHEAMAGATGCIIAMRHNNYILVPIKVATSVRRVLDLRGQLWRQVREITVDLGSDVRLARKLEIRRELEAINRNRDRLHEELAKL
Procedure: SPR measurements were performed using a BIAcore T200 instrument (GE Healthcare). Active N-terminally His6-tagged TbPFK surfaces were generated using a His-tag capture and coupling onto Ni^2+‐nitrilotriacetic acid sensor chips. Following Ni^2+ priming (30 s injection of 500 μM NiCl2 at 5 μl min^−1), dextran surface carboxylate groups were minimally activated by an injection of 0.2 M EDC; 50 mM NHS at 5 μl min^−1 for 240 s. TbPFK (at concentrations between 10 and 400 nM), in 10 mM NaH2PO4, pH 7.5; 150 mM NaCl; 50 μM EDTA; 0.05% surfactant p20, was captured via the hexa-His-tag and simultaneously covalently stabilised to between 1500 RU and 3100 RU, by varying the contact time. Immediately following the capture/stabilisation a single 15 s injection of 350 mM EDTA and 50 mM imidazole in 10 mM NaH2PO4, pH 7.5; 150 mM NaCl; 50 mM EDTA; 0.05% surfactant p20, at 30 μl min^−1, was used to remove non-covalently bound protein, followed by a 180 s injection of 1 M H2N(CH2)2OH, pH 8.5 at 5 μl min^−1.
Active N-terminally His6-tagged TbPFK surfaces were generated using a His-tag capture and coupling method described previously (2). The surface density on the SPR chip = 1500 RU. A 1:1 binding model has been fitted to each sensorgram trace (black). All measurements were at 25 °C. […] Source data are provided as a Source Data file.

Structure (SMILES): CN(C)CCn1ccc2c(ccn2Cc2ccc(Cl)c(Cl)c2)c1=O [CTCB-405, 1-[(3,4-Dichlorophenyl)methyl]-5-[2-(dimethylamino)ethyl] pyrrolo[3,2-c]pyridin-4-one]
- concentration at 2 h ([1]; brain homogenate, read-out: mean concentration in brain homogenate): 1510 ng/g
- concentration at 2 h ([1]; plasma, read-out: mean plasma concentration): 366 ng/mL
- koff (TbPFK): 0.079 s⁻¹
- kon (TbPFK): 960000 M⁻¹ s⁻¹
- pKd (TbPFK; 25 °C): 7.09

Reference: publication PMC7887271, “Fast acting allosteric phosphofructokinase inhibitors block trypanosome glycolysis and cure acute African trypanosomiasis in mice” (Nature Communications, 2021)
